Experimental data from ChEMBL document CHEMBL4765429, “Discovery of methyl 3-((2-((1-(dimethylglycyl)-5-methoxyindolin-6-yl)amino)-5-(trifluoro-methyl) pyrimidin-4-yl)amino)thiophene-2-carboxylate as a potent and selective polo-like kinase 1 (PLK1) inhibitor for combating hepatocellular carcinoma” (Eur J Med Chem, 2020).

Legend:
[1] = Metabolic stability in mouse liver microsomes assessed as clearance; format: ADME, Microsome; conditions: read-out: CLH
[2] = Volume of distribution at steady state in ICR mouse at 5 mg/kg, iv; format: ADME, organism-based; conditions: in vivo, read-out: Vdss
[3] = Metabolic stability in monkey liver microsomes assessed as clearance; format: ADME, Macaca mulatta, Microsome; conditions: rhesus monkey, read-out: CLH
[4] = Metabolic stability in human liver microsomes assessed as clearance; format: ADME, Microsome; conditions: read-out: CLH
[5] = AUC (0 to infinity) in ICR mouse at 5 mg/kg, iv; format: ADME, organism-based; parameters: route intravenous, time infinity, dose 5 mg/kg; conditions: in vivo
[6] = Metabolic stability in dog liver microsomes assessed as clearance; format: ADME, Canis lupus familiaris, Microsome; conditions: read-out: CLH
[7] = Half life in ICR mouse at 5 mg/kg, iv; format: ADME, organism-based; conditions: in vivo
[8] = Metabolic stability in rat liver microsomes assessed as clearance; format: ADME, Microsome; conditions: read-out: CLH

CLint scaled [1]: 331 mL/min/kg
Vd [2]: 5.21 L/kg
CLint scaled [3]: 196 mL/min/kg
CLint scaled [4]: 74.3 mL/min/kg
AUC(0-inf) [5]: 776 ng·h/mL
CLint scaled [6]: 61.5 mL/min/kg
half-life [7]: 88.2 min
CLint scaled [8]: 91.3 mL/min/kg
Structure (SMILES): COC(=O)c1sccc1Nc1nc(Nc2cc3c(cc2OC)CCN3C(=O)CN(C)C)ncc1C(F)(F)F
